Test results published in patent US9624182B2, “Compounds as lysophosphatidic acid receptor antagonists” (Amira Pharmaceuticals, Inc., priority 2009, dated 2017).

test system: A2058 human melanoma cells; experiment: LPA1 chemotaxis assay; assay type: cell-based; details: LPA 100 nM, read-out: IC50, inhibition of LPA-driven chemotaxis
Procedure: Chemotaxis of the A2058 human melanoma cells was measured using the Neuroprobe ChemoTx® System plates (8 μm pore size, 5.7 mm diameter sites). The filter sites were coated with 0.001% fibronectin (Sigma) in 20 mM Hepes, pH 7.4 and allowed to dry. A2058 cells were serum-starved for 24 hours, then harvested with Cell Stripper and resuspended in DMEM containing 0.1% fatty-acid-free bovine serum albumin (BSA) to a concentration of 1×10^6/ml. Cells were mixed with an equal volume of test compound (2×) in DMEM containing 0.1% fatty-acid-free BSA and incubated at 37° C. for 15 minutes. LPA (100 nM in DMEM containing 0.1% fatty-acid-free BSA) or vehicle was added to each well of the lower chamber and 50 μl of the cell suspension/test compound mix was applied to the upper portion of the ChemoTx plate. Plates were incubated at 37° C. for three hours and then the cells removed from the upper portion by rinsing with PBS and scraping. The filter was dried then stained with HEMA 3 Staining System (Fisher Scientific). The absorbance of the filter was read at 590 nm and IC50s were determined using Symyx Assay Explorer.

IC50	Compound
< 100 nM	Cc1noc(-c2ccc(-c3ccc(C4(C(=O)O)CC4)cc3)cc2)c1C(O)CCCc1ccccc1 (stereo not drawn) [Compound 1-116, 1-{4′-[4-(1-Hydroxy-4-phenyl-butyl)-3-methyl-isoxazol-5-yl]-biphenyl-4-yl}-cyclopropanecarboxylic acid]
< 100 nM	Cc1noc(-c2ccc(-c3ccc(C4(C(=O)O)CC4)cc3)cc2)c1C(O)CCCc1ccccc1 (single isomer, unassigned) [Compound 1-155, 1-{4′-[4-(1-Hydroxy-4-phenyl-butyl)-3-methyl-isoxazol-5-yl]-biphenyl-4-yl}-cyclopropanecarboxylic acid]
< 100 nM	Cc1noc(-c2ccc(-c3ccc(C4(C(=O)O)CC4)cc3)cc2)c1C(O)C(F)(F)CCc1ccccc1 (stereo not drawn) [Compound 1-178, 1-{4′-[4-(2,2-Difluoro-1-hydroxy-4-phenyl-butyl)-3-methyl-isoxazol-5-yl]-biphenyl-4-yl}-cyclopropanecarboxylic acid]

target: T1, human LPA1 (Homo sapiens, UniProt Q92633); experiment: LPA1 calcium flux assay; assay type: cell-based; details: CHO cells expressing human LPA1, stimulated with 10 nM LPA; read-out: HLPA1 Ca Flux IC50
T1 construct: the full-length cDNA for human LPA1 was obtained by PCR of the reverse transcription reaction; expressed in transfected cells
In short: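 Antagonism measured as block of 10 nM LPA-evoked calcium rise in stable human LPA1-CHO cells. After overnight serum-free culture and 1 h dye loading at 37 °C (buffer with 0.3% fatty-acid-free albumin), compound was added for 30 min at room temperature. Titration curves gave IC50.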

T1 sequence (Q92633 whole entry): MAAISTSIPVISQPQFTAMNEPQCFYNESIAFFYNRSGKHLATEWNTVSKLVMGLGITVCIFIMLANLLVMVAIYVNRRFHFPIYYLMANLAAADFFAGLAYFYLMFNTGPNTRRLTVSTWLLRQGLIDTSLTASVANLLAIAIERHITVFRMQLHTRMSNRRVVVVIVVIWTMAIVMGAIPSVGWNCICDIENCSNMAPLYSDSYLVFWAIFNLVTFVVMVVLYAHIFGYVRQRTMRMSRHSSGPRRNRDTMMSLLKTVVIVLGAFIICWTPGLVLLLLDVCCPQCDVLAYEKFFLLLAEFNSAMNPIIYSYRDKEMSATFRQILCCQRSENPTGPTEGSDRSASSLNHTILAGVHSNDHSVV

IC50	Compound
< 300 nM	Cc1noc(-c2ccc(-c3ccc(C4(C(=O)O)CC4)cc3)cc2)c1C(O)CCCc1ccccc1 (single isomer, unassigned) [Compound 1-155, 1-{4′-[4-(1-Hydroxy-4-phenyl-butyl)-3-methyl-isoxazol-5-yl]-biphenyl-4-yl}-cyclopropanecarboxylic acid]
< 300 nM	Cc1noc(-c2ccc(-c3ccc(C4(CC(=O)O)CC4)cc3)cc2)c1C(O)COCc1cccc(C(F)(F)F)c1 (stereo not drawn) [Compound 1-244, [1-(4′-{4-[1-Hydroxy-2-(3-trifluoromethyl-benzyloxy)-ethyl]-3-methyl-isoxazol-5-yl}-biphenyl-4-yl)-cyclopropyl]-acetic acid]
< 300 nM	CCC(C(=O)O)c1ccc(-c2ccc(-c3onc(C)c3CSCCc3ccccc3)cc2)cc1 (stereo not drawn) [Compound 1-122, 2-[4′-(3-Methyl-4-phenethylsulfanylmethyl-isoxazol-5-yl)-biphenyl-4-yl]-butyric acid]
< 300 nM	Cc1noc(-c2ccc(-c3ccc(C4(C(=O)O)CC4)cc3)cc2)c1NC(=O)N[C@H](C)c1ccccc1 [Compound 1-11, 1-(4′-{3-Methyl-4-[3-((R)-1-phenyl-ethyl)-ureido]-isoxazol-5-yl}-biphenyl-4-yl)-cyclopropanecarboxylic acid]
1000 to 50000 nM	Cc1noc(-c2ccc(-c3ccc(C4(C(=O)O)CC4)cc3)cc2)c1CN(CC(C)c1ccccc1)C(=O)C1CC1 (stereo not drawn) [Compound 1-73, 1-[4′-(4-{[Cyclopropanecarbonyl-(2-phenyl-propyl)-amino]-methyl}-3-methyl-isoxazol-5-yl)-biphenyl-4-yl]-cyclopropanecarboxylic acid]
1000 to 50000 nM	Cc1noc(-c2ccc(-c3ccccc3CC(=O)O)cc2)c1NC(C)CCCO (stereo not drawn) [Compound 1-231, {4′-[4-(4-Hydroxy-1-methyl-butylamino)-3-methyl-isoxazol-5-yl]-biphenyl-2-yl}-acetic acid]
< 300 nM	Cc1noc(-c2ccc(-c3ccc(C(C(=O)O)C(C)C)cc3)cc2)c1CSCCc1ccccc1 (stereo not drawn) [Compound 1-137, 3-Methyl-2-[4′-(3-methyl-4-phenethylsulfanylmethyl-isoxazol-5-yl)-biphenyl-4-yl]-butyric acid]
1000 to 50000 nM	Cc1noc(-c2ccc(-c3cccc(C(=O)O)c3)cc2)c1CNC(=O)OCc1ccccc1 [Compound 1-305, 4′-[4-(Benzyloxycarbonylamino-methyl)-3-methyl-isoxazol-5-yl]-biphenyl-3-carboxylic acid]
< 300 nM	Cc1noc(-c2ccc(-c3ccc(C4(C(=O)O)CC4)cc3)cc2)c1C(O)C(=O)NCCc1ccccc1 (stereo not drawn) [Compound 1-249, 1-{4′-[4-(Hydroxy-phenethylcarbamoyl-methyl)-3-methyl-isoxazol-5-yl]-biphenyl-4-yl}-cyclopropanecarboxylic acid]
1000 to 50000 nM	CCCC(O)c1c(C)noc1-c1ccc(-c2ccc(C3(C(=O)O)CC3)cc2)cc1 (stereo not drawn) [Compound 1-166, 1-{4′-[4-(1-Hydroxy-butyl)-3-methyl-isoxazol-5-yl]-biphenyl-4-yl}-cyclopropanecarboxylic acid]
< 300 nM	Cc1noc(-c2ccc(-c3ccc(C4(C(=O)O)CC4)cc3)cc2)c1C(O)CSc1ccccc1 (stereo not drawn) [Compound 1-277, 1-{4′-[4-(1-Hydroxy-2-phenylsulfanyl-ethyl)-3-methyl-isoxazol-5-yl]-biphenyl-4-yl}-cyclopropanecarboxylic acid]
< 300 nM	Cc1noc(-c2ccc(-c3ccc(C4(C(=O)O)CC4)cc3)cc2)c1C=CCCc1ccccc1 [Compound 1-31, 1-{4′-[3-Methyl-4-(4-phenyl-but-1-enyl)-isoxazol-5-yl]-biphenyl-4-yl}-cyclopropanecarboxylic acid]
< 300 nM	Cc1noc(-c2ccc(-c3ccc(C4(C(=O)O)CC4)cc3)cc2)c1CC(=O)CCc1ccccc1 [Compound 1-88, 1-{4′-[3-Methyl-4-(2-oxo-4-phenyl-butyl)-isoxazol-5-yl]-biphenyl-4-yl}-cyclopropanecarboxylic acid]
1000 to 50000 nM	Cc1noc(-c2ccc(-c3ccc(C4(C(=O)O)CC4)cc3)cc2)c1CCC(=O)N(C)C1CC1 [Compound 1-127, 1-(4′-{4-[2-(Cyclopropyl-methyl-carbamoyl)-ethyl]-3-methyl-isoxazol-5-yl}-biphenyl-4-yl)-cyclopropanecarboxylic acid]
1000 to 50000 nM	Cc1noc(-c2ccc(-c3ccc(C4(CC(=O)O)CC4)cc3)cc2)c1C(O)CC(C)(C)c1ccccc1 (stereo not drawn) [Compound 1-246, (1-{4′-[4-(1-Hydroxy-3-methyl-3-phenyl-butyl)-3-methyl-isoxazol-5-yl]-biphenyl-4-yl}-cyclopropyl)-acetic acid]
< 300 nM	Cc1noc(-c2ccc(-c3ccc(C4(C(=O)O)CC4)cc3)cc2)c1CC(=O)NC1Cc2ccccc2C1 [Compound 1-90, 1-{4′-[4-(Indan-2-ylcarbamoylmethyl)-3-methyl-isoxazol-5-yl]-biphenyl-4-yl}-cyclopropanecarboxylic acid]
< 300 nM	Cc1noc(-c2ccc(-c3ccc(C4(C(=O)O)CC4)cc3)cc2)c1CCC(=O)N(C)Cc1ccccc1F [Compound 1-44, 1-[4′-(4-{2-[(2-Fluoro-benzyl)-methyl-carbamoyl]-ethyl}-3-methyl-isoxazol-5-yl)-biphenyl-4-yl]-cyclopropanecarboxylic acid]
< 300 nM	Cc1noc(-c2ccc(-c3ccc(C4(C(=O)O)CC4)cc3)cc2)c1CNC(=O)C1(c2ccccc2)CC1 [Compound 1-64, 1-[4′-(3-Methyl-4-{[(1-phenyl-cyclopropanecarbonyl)-amino]-methyl}-isoxazol-5-yl)-biphenyl-4-yl]-cyclopropanecarboxylic acid]
< 300 nM	Cc1noc(-c2ccc(-c3cccc(CCC(=O)O)c3)cc2)c1C(O)CCCc1ccccc1 (stereo not drawn) [Compound 1-200, 3-{4′-[4-(1-Hydroxy-4-phenyl-butyl)-3-methyl-isoxazol-5-yl]-biphenyl-3-yl}-propionic acid]
> 50000 nM	Cc1noc(-c2ccc(-c3ccc(C4(C(=O)O)CC4)cc3)cc2)c1CCC(=O)Nc1ccccc1 [Compound 1-43, 1-{4′-[3-Methyl-4-(2-phenylcarbamoyl-ethyl)-isoxazol-5-yl]-biphenyl-4-yl}-cyclopropanecarboxylic acid]
< 300 nM	Cc1noc(-c2ccc(-c3ccc(C4(C(=O)O)CC4)cc3)cc2)c1C/C(CCc1ccccc1)=N/O [Compound 1-134, 1-[4′-(4-{2-[Hydroxyimino]-4-phenyl-butyl}-3-methyl-isoxazol-5-yl)-biphenyl-4-yl]-cyclopropanecarboxylic acid]
< 300 nM	Cc1noc(-c2ccc(-c3ccc(CCC(=O)O)cc3)cc2)c1NC(C)CCc1cccc(C(F)(F)F)c1 (stereo not drawn) [Compound 1-192, 3-(4′-{3-Methyl-4-[1-methyl-3-(3-trifluoromethyl-phenyl)-propylamino]-isoxazol-5-yl}-biphenyl-4-yl)-propionic acid]
< 300 nM	Cc1noc(-c2ccc(-c3ccc(C4(C(=O)O)CC4)cc3)cc2)c1Nc1cccc(C(=O)NCC(C)(C)C)n1 [Compound 1-300, 1-(4′-{4-[6-(2,2-Dimethyl-propylcarbamoyl)-pyridin-2-ylamino]-3-methyl-isoxazol-5-yl}-biphenyl-4-yl)-cyclopropanecarboxylic acid]
< 300 nM	COC(CCCc1ccccc1)c1c(C)noc1-c1ccc(-c2ccc(C3(C(=O)O)CC3)cc2)cc1 (stereo not drawn) [Compound 1-148, 1-{4′-[4-(1-Methoxy-4-phenyl-butyl)-3-methyl-isoxazol-5-yl]-biphenyl-4-yl}-cyclopropanecarboxylic acid]
< 300 nM	Cc1noc(-c2ccc(-c3ccc([C@H]4C[C@H]4C(=O)O)cc3)cc2)c1CSCCc1ccccc1 (relative stereo) [Compound 1-131, (cis)-2-[4′-(3-Methyl-4-phenethylsulfanylmethyl-isoxazol-5-yl)-biphenyl-4-yl]-cyclopropanecarboxylic acid]
< 300 nM	Cc1noc(-c2ccc(-c3ccc(C4(C(=O)O)CC4)cc3)cc2)c1Nc1cccc(OC(C)C)n1 [Compound 1-297, 1-{4′-[4-(6-Isopropoxy-pyridin-2-ylamino)-3-methyl-isoxazol-5-yl]-biphenyl-4-yl}-cyclopropanecarboxylic acid]
< 300 nM	Cc1noc(-c2ccc(-c3ccc(CC(=O)O)cc3)cc2)c1NC(C)CCc1cccc(F)c1 (stereo not drawn) [Compound 1-165, (4′-{4-[3-(3-Fluoro-phenyl)-1-methyl-propylamino]-3-methyl-isoxazol-5-yl}-biphenyl-4-yl)-acetic acid]
